Data as given in US20230183309A1 (Dana-Farber Cancer Institute, Inc., priority 2019, published 2023).
Entries after “also recorded” stand apart in the source; their conditions may differ. Numbered stars: 1 amine (or outer) side, 2 acyl side, 3 side chain; on linkers, the order of the positions; unused ones are H or OH. Bridge positions count the residues as written; N and C are the ends. Square brackets hold non-standard residues; d marks the D form. code # = α,α-bis(4′-pentenyl)glycine, C=CCCCC(CCCC=C)(N[*:1])C(=O)[*:2]; R8 = C=CCCCCCC[C@@](C)(N)C(=O)O; S8 = C=CCCCCCC[C@](C)(N)C(=O)O; Aib = CC(C)(N)C(=O)O

Key:
B6 mice = test: Glucose tolerance test in fasted mice; format: in vivo, mouse; settings: 10 nmol/kg IP, glucose 2 g/kg IP 30 minutes later
Description: To evaluate whether the relative proteolytic stability of SAH-GLP-1(16,23,30) translated into a functional benefit in vivo, glucose tolerance tests in mice were performed. Mice (n=8 per arm) were fasted overnight and administered the corresponding panel of peptides at 10 nmol/kg intraperitoneally followed by a glucose bolus (2 g/kg) 30 minutes later, and then serial serum glucose monitoring was performed over time.
In vivo efficacy testing of SAH-GLP-1 peptides. Male B6 and db/db mice (JAX 000697) at 10-12 weeks of age were housed (5 mice/cage) at a constant room temperature of 24° C. on a normal day-light cycle and provided a standard diet ad libitum. After one week of acclimatization, B6 mice (n=8 per treatment arm) were fasted for 16 hours overnight and the following morning baseline blood glucose levels were measured (Onetouch), followed by intraperitoneal (IP) injection of vehicle (saline) or the indicated peptide (10 nmol/kg). Thirty minutes later, the mice were treated with a bolus IP injection of glucose (2 g/kg, 20% aqueous solution), followed by serial blood glucose monitoring at 0, 15, 30, 60, and 120 minutes. To evaluate the comparative anti-hyperglycemic effects of peptides in db/db mice (n=8 per treatment arm), vehicle (saline) or the indicated peptide (10 nmol/kg) was injected IP and blood glucose levels monitored at 0, 15, 30, 60, and 720 minutes.

human GLP-1 receptor = human GLP-1 receptor (Homo sapiens, UniProt P43220); settings: GFP-GLP-1R U2OS cells; FIG. 6A, 6B (lower dose-range 1 µM, 100 nM, 10 nM)
proteinase K = target: T1, proteinase K (Parengyodontium album, UniProt P06873); format: in vitro ADME
T1 construct: purchased New England Biolabs

[1] = mouse
Description: Plasma Stability Testing. Peptide stability was tested in freshly drawn mouse plasma collected in lithium heparin tubes. Peptide plasma incubations were set up with 500 µL of plasma spiked with 10 µM of the individual peptides. Samples were gently shaken in an orbital shaker at 37° C., and 20 µL aliquots were removed at 0, 5, 15, 30, 60, 120, and 200 minutes and added to 150 µL of a mixture containing 50% water/50% acetonitrile to stop further degradation of the peptides. The samples were allowed to sit on ice for the duration of the assay and then transferred to a MultiScreen Solvinert 0.45 µm low-binding hydrophilic PTFE plate (Millipore). The filtrate was directly analyzed by LC/MS/MS using a Thermo BetaSil column, 2.1 × 50 mm, 5 µm. […] The percentage of remaining peptide was determined by the decrease in chromatographic peak area and log transformed to calculate the half-life.

[2] = target: GLP-1R expressed on CHO-K1 cells (cAMP Hunter eXpress GLP1R CHO-K1 GPCR Assay, Eurofins, 95-0062E2CP2S) (UniProt P43220 24-463); test: cell-based or functional assay

T1 sequence (P06873 106-384): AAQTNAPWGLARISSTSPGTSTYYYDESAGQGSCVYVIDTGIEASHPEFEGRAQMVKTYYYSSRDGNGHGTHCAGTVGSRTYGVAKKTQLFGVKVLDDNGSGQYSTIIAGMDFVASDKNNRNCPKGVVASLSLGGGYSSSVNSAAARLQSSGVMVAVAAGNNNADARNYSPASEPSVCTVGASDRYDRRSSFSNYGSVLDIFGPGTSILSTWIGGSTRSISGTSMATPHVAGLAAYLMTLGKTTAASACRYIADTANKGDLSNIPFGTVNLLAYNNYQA
Sequence of human GLP-1 receptor (P43220 24-463): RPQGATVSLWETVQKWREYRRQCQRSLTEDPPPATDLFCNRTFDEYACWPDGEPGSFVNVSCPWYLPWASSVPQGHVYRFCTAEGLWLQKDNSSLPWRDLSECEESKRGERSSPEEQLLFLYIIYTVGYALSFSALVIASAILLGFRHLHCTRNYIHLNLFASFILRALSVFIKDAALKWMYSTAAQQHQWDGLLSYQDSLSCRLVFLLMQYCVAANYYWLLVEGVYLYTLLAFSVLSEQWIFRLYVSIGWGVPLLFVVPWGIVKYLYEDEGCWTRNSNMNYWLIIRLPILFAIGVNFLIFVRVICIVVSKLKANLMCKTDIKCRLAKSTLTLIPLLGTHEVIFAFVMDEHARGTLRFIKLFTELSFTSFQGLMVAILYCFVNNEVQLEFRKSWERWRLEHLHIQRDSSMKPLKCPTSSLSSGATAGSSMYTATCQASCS

Molecule: CC[C@H](C)[C@H](NC(=O)[C@H](Cc1ccccc1)NC(=O)[C@H](CCC(=O)O)NC(=O)[C@H](CCCCN)NC(=O)[C@H](C)NC(=O)[C@H](C)NC(=O)[C@H](CCC(N)=O)NC(=O)CNC(=O)[C@H](CCC(=O)O)NC(=O)[C@H](CC(C)C)NC(=O)[C@H](Cc1ccc(O)cc1)NC(=O)[C@H](CO)NC(=O)[C@H](CO)NC(=O)[C@@H](NC(=O)[C@H](CC(=O)O)NC(=O)[C@H](CO)NC(=O)[C@@H](NC(=O)[C@H](Cc1ccccc1)NC(=O)[C@@H](NC(=O)CNC(=O)[C@H](CCC(=O)O)NC(=O)[C@H](C)NC(=O)[C@@H](N)Cc1c[nH]cn1)[C@@H](C)O)[C@@H](C)O)C(C)C)C(=O)N[C@@H](C)C(=O)N[C@@H](Cc1c[nH]c2ccccc12)C(=O)N[C@@H](CC(C)C)C(=O)N[C@H](C(=O)N[C@@H](CCCCN)C(=O)NCC(=O)N[C@@H](CCCNC(=N)N)C(N)=O)C(C)C [GLP-1]
- control of induced hyperglycemia in glucose tolerance test (B6 mice): least effective

Molecule: HGEGTFTSD8SSYLEG#AAKEFIZWLVKGR (H-HGEGTFTSD[R8]SSYLEG[code #]AAKEFI[S8]WLVKGR-NH2; staple 10-17, 17-24) [SAH-GLP-1(A8G)(16,23,30)]
- GLP-1R internalization activity compared with the corresponding unstapled / wild-type GLP-1 peptide (human GLP-1 receptor): more active

Molecule: CC[C@H](C)[C@@H]1NC(=O)[C@H](Cc2ccccc2)NC(=O)[C@H](CCC(=O)O)NC(=O)[C@H](CCCCN)NC(=O)[C@H](C)NC(=O)[C@H](C)NC(=O)C2(CCCC=CCCCCCC[C@@](C)(NC(=O)[C@H](CC(=O)O)NC(=O)[C@H](CO)NC(=O)[C@@H](NC(=O)[C@H](Cc3ccccc3)NC(=O)[C@@H](NC(=O)CNC(=O)[C@H](CCC(=O)O)NC(=O)C(C)(C)NC(=O)[C@@H](N)Cc3c[nH]cn3)[C@@H](C)O)[C@@H](C)O)C(=O)N[C@@H](CO)C(=O)N[C@@H](CO)C(=O)N[C@@H](Cc3ccc(O)cc3)C(=O)N[C@@H](CC(C)C)C(=O)N[C@@H](CCC(=O)O)C(=O)NCC(=O)N2)CCCC=CCCCCCC[C@@](C)(C(=O)N[C@@H](Cc2c[nH]c3ccccc23)C(=O)N[C@@H](CC(C)C)C(=O)N[C@H](C(=O)N[C@@H](CCCCN)C(=O)NCC(=O)N[C@@H](CCCNC(=N)N)C(N)=O)C(C)C)NC1=O (stereo partly drawn) [SAH-GLP-1(16,23,30), HJEGTFTSD8SSYLEG#AAKEFIZWLVKGR]
- improvement of proteinase K half-life compared to the singly stapled peptides (proteinase K): 2-7 fold
- improvement of proteinase K half-life compared to wild-type / control peptide (proteinase K): over 20 fold
- half-life (proteinase K; proteinase K, 50 mM Tris-HCl, pH 7.4, peptides have the A8Aib substitution, read-out: t½ (half-life), proteinase K digestion, intact peptide by LCMS): 3.67 h
- plasma half-life relative to semaglutide [1]: nearly double
- half-life ([1]; plasma): 5.33 h

Molecule: CC[C@H](C)[C@H](NC(=O)[C@H](Cc1ccccc1)NC(=O)[C@H](CCC(=O)O)NC(=O)[C@H](CCCCNC(=O)COCCOCCNC(=O)COCCOCCNC(=O)CC[C@H](NC(=O)CCCCCCCCCCCCCCCCC(=O)O)C(=O)O)NC(=O)[C@H](C)NC(=O)[C@H](C)NC(=O)[C@H](CCC(N)=O)NC(=O)CNC(=O)[C@H](CCC(=O)O)NC(=O)[C@H](CC(C)C)NC(=O)[C@H](Cc1ccc(O)cc1)NC(=O)[C@H](CO)NC(=O)[C@H](CO)NC(=O)[C@@H](NC(=O)[C@H](CC(=O)O)NC(=O)[C@H](CO)NC(=O)[C@@H](NC(=O)[C@H](Cc1ccccc1)NC(=O)[C@@H](NC(=O)CNC(=O)[C@H](CCC(=O)O)NC(=O)C(C)(C)NC(=O)[C@@H](N)Cc1cnc[nH]1)[C@@H](C)O)[C@@H](C)O)C(C)C)C(=O)N[C@@H](C)C(=O)N[C@@H](Cc1c[nH]c2ccccc12)C(=O)N[C@@H](CC(C)C)C(=O)N[C@H](C(=O)N[C@@H](CCCNC(=N)N)C(=O)NCC(=O)N[C@@H](CCCNC(=N)N)C(=O)NCC(=O)O)C(C)C [semaglutide, reference compound]
- proteolysis by proteinase K (in words) (proteinase K; identical conditions as FIG. 7A, FIG. 7B): rapidly proteolyzed; also recorded: rapid proteolysis

Molecule: H-H[Aib]EGTFTSD[R8]SSYLEG[code #]AAKEFI[S8]WLVKGR-NH2 (staple 10-17, 17-24) [SAH-GLP-1(16,23,30) A8J]
- cAMP induction (cAMP Hunter eXpress luminescence assay), EC50 [2]: 160 pM
